Values after ≈ are worked out from the molar mass of the structure shown. Values joined by “and” are separate entries in the source; they are usually repeats but may differ in a detail not shown here. Identical values can stand only once. Positions of bridges follow the written chain, without caps; N, C: chain ends. Residues, ends and D or L forms follow the SMILES beside them. No end group written: not given here.

Series [1] deals with methicillin-resistant S. aureus (MRSA) (NCTC12493). In kind it is cell-based, Staphylococcus aureus. On the procedure:
(§1) The antimicrobial assay was carried out to detect the minimum inhibitory concentration (MIC) and the minimum bactericidal concentration (MBC) of each peptide on the microbes as described previously. Seven different microorganisms were used in the assay: Gram-positive bacteria Staphylococcus aureus (NCTC10788), Enterococcus faecalis (NCTC12697), and methicillin-resistant S. aureus (MRSA) (NCTC12493); Gram-negative bacteria Escherichia coli (NCTC10418), Pseudomonas aeruginosa (ATCC27853), and Klebsiella pneumoniae (ATCC 43816); and fungi Candida albicans (NCYC1467). Bacterial strains were inoculated and grown to mid-log phase in fresh Mueller Hinton broth (MHB) at 37 °C for overnight, then bacteria inoculum suspensions were subcultured until reaching the logarithmic growth phase by measuring OD of the cultures at wavelength 550 nm. Then, 99 µL bacteria and 1 µL peptide solution were mixed in the 96-wells microplate. For positive and negative controls, the bacteria were incubated with antibiotics (Norfloxacin for Gram-positive bacteria and Gram-negative bacteria; Amphotericin B for fungi) solution and MHB medium, respectively. Experiments were repeated five times in five replicates.

The subject of series [2] is Enterococcus faecalis (NCTC12697). In kind it is cell-based. The procedure: as §1
The subject of series [3] is Staphylococcus aureus (NCTC10788). It is filed as cell-based. On the procedure: as §1
The test system of series [4] is Pseudomonas aeruginosa (ATCC27853). In kind it is cell-based. On the procedure:
as §1

The subject of series [5] is Escherichia coli (NCTC10418). In kind it is cell-based. The procedure: as §1
Series [6] has as its system Candida albicans (NCYC1467). It is filed as cell-based. On the procedure:
as §1

Series [7] relates to Klebsiella pneumoniae (ATCC 43816). It is filed as cell-based. On the procedure: as §1
Another series has as its system horse erythrocytes. In words: Haemolytic assay. Conditions: 2% (v/v) horse red blood cells, 37 °C, 2 h; 1% Triton-X 100 positive control; three times in five replicates. It is filed as cell-based. The procedure:
The haemolytic assay was carried out to detect the cytotoxicity of each peptide to erythrocytes obtained from fresh defibrinated horse blood as described before. An appropriate volume of horse blood solution was collected via washing and transferring until the supernatant was clear. Then, 2% (v/v) suspension of red blood cells were incubated with peptide at 37 °C for 2 h. For positive and negative controls, the red blood cells were incubated with 1% (v/v) Triton-X 100 and Phosphate-buffered saline (PBS) solution, respectively. The 10% of maximal haemolysis concentration (HC10, μM) was utilised to assess the haemolytic potential. Experiments were repeated three times in five replicates.

Series [8] deals with Staphylococcus aureus (NCTC10788). The settings on record: cited from earlier work. The source says: (§2) Although B1PLC had better activity against bacteria, its potency was slightly lower than that of B1PLB against fungi. As we know, the more positive charge of B1PLC (Table 1) could contribute to an enhanced electrostatic interaction with the negatively charged bacterial cell envelope. Therefore, to try to combine the properties of the two peptides, we designed B1A by substitution of the Asn residue at po ...

The subject of series [9] is Escherichia coli (NCTC10418). The settings on record: cited from earlier work.
Description: as §2

Series [10] concerns Candida albicans (NCYC1467). The settings on record: cited from earlier work.
Description: as §2

With `CC[C@H](C)[C@@H]1NC(=O)[C@H](C)NC(=O)[C@@H](NC(=O)[C@H](Cc2ccccc2)NC(=O)[C@@H](NC(=O)[C@H](CCCCN)NC(=O)[C@@H]2CCCN2C(=O)[C@H](CC(C)C)NC(=O)[C@@H](N)Cc2ccccc2)[C@@H](C)CC)CSSC[C@@H](C(=O)O)NC(=O)[C@H](CCCCN)NC(=O)[C@H](CCCCN)NC(=O)[C@H]([C@@H](C)O)NC1=O` [Peptide B1A2] (H-FLPKIFCAITKKC-OH; disulfide 7-13), in [1], the “MBC MRSA” value is on record as above 512 µM and the “MIC MRSA” value was 256 µM (≈ 387 µg/mL). In [2], the MBC E. faecalis is above 512 µM and the MIC E. faecalis was above 512 µM. Besides, the MBC S. aureus in series [3] was determined as 256 µM (≈ 387 µg/mL). For the same compound, in [4], the MBC P. aeruginosa was above 512 µM and the MIC P. aeruginosa is above 512 µM. In [5], this compound came in with an MBC E. coli of 256 µM (≈ 387 µg/mL) and an MIC E. coli of 256 µM (≈ 387 µg/mL). Further, in series [6], the MBC C. albicans came to 512 µM (≈ 773 µg/mL) and the MIC C. albicans amounted to 512 µM (≈ 773 µg/mL). In [7], this compound had an MBC K. pneumoniae above 512 µM and an MIC K. pneumoniae above 512 µM. Further, the “HC10 (concentration causing 10% red cell lysis)” value in the series with horse erythrocytes is “could not be calculated and >512 µM”.

As for `CC[C@H](C)[C@@H]1NC(=O)[C@H](C)NC(=O)[C@@H](NC(=O)[C@H](Cc2ccccc2)NC(=O)[C@@H](NC(=O)[C@H](CCCCN)NC(=O)[C@@H]2CCCN2C(=O)[C@H](CC(C)C)NC(=O)[C@H](Cc2ccccc2)NC(=O)[C@H](CCCCN)NC(=O)[C@H](C)NC(=O)[C@H](C)NC(=O)[C@H](CC(C)C)NC(=O)CNC(=O)[C@H](C)NC(=O)[C@@H](NC(=O)[C@H](CC(C)C)NC(=O)[C@@H]2CCCN2C(=O)[C@H](CC(C)C)NC(=O)[C@@H](N)Cc2ccccc2)[C@@H](C)CC)[C@@H](C)CC)CSSC[C@@H](C(=O)O)NC(=O)[C@H](CCCCN)NC(=O)[C@H](CCCCN)NC(=O)[C@H]([C@@H](C)O)NC1=O` [Peptide B1A] (H-FLPLIAGLAAKFLPKIFCAITKKC-OH; disulfide 18-24), in series [1], the “MBC MRSA” value is reported as 32 µM (≈ 83.4 µg/mL) and the “MIC MRSA” value turned out to be 16 µM (≈ 41.7 µg/mL). In series [2], the “MBC E. faecalis” value worked out at 32 µM (≈ 83.4 µg/mL) and the “MIC E. faecalis” value is 8 µM (≈ 20.8 µg/mL). Also, the “MBC S. aureus” value in [3] is recorded as 8 µM (≈ 20.8 µg/mL). Also, in [4], the “MBC P. aeruginosa” value stood at 64 µM (≈ 167 µg/mL) and the “MIC P. aeruginosa” value is on record as 32 µM (≈ 83.4 µg/mL). Besides, in series [5], the “MBC E. coli” value is 32 µM (≈ 83.4 µg/mL) and the “MIC E. coli” value amounted to 8 µM (≈ 20.8 µg/mL). Besides, in series [6], the “MBC C. albicans” value is on record as 8 µM (≈ 20.8 µg/mL) and the “MIC C. albicans” value was found to be 4 µM (≈ 10.4 µg/mL). In series [7], this compound yielded an MBC K. pneumoniae of 16 µM (≈ 41.7 µg/mL) and an MIC K. pneumoniae of 16 µM (≈ 41.7 µg/mL). In addition, in the series on horse erythrocytes, the “HC10 (concentration causing 10% red cell lysis)” value was 1.576 µM.

With “FLPLIAGLAANFLPKIFCAITKKC (disulfide 18-24 (inferred)) [Peptide B1PLB, Brevinin-1PLb, brevinin-1 peptide from the skin secretions of Lithobates palustris (Rana palustris)]”, in series [8], the “Antimicrobial activity against S. aureus” value was “potent antimicrobial activity”. The “Antimicrobial activity against E. coli” value in series [9] was “potent antimicrobial activity”. In addition, the “Antimicrobial activity against C. albicans” value in series [10] was “potent antimicrobial activity”.

On to “FLPVIAGVAAKFLPKIFCAITKKC (disulfide 18-24 (inferred)) [Peptide B1PLC, brevinin-1PLc, brevinin-1 peptide from the skin secretions of Lithobates palustris (Rana palustris)]”, for which the “Antimicrobial activity against S. aureus” value in [8] is “potent antimicrobial activity”. Besides, in series [9], the “Antimicrobial activity against E. coli” value is given as “potent antimicrobial activity”. For the same compound, in [10], the “Antimicrobial activity against C. albicans” value was “potent antimicrobial activity”.

The values are drawn from paper PMC7464788, “Modification and Targeted Design of N-Terminal Truncates Derived from Brevinin with Improved Therapeutic Efficacy” (Biology, 2020).
